The values that follow come from patent EP4582418A1, “CRYSTALLINE FORM OF QUINOLINE DERIVATIVE INHIBITOR, PREPARATION METHOD THEREFOR AND USE THEREOF” (TransThera Sciences (Nanjing), Inc., priority 2022, dated 2024).

A short description of the series: Stability test under influencing factors (high temperature, high humidity, illumination). In kind it is physicochemical. As to the method: Test substances: the crystal forms I, II, III, and IV of the methanesulfonate of the compound of formula (I) of the present disclosure.
Methodology: Appropriate amounts of samples of the crystal forms I, II, III, and IV of the methanesulfonate of the compound of formula (I) were separately left to stand open under the conditions of a high temperature (60 °C), a high humidity (RH 92.5%), and illumination (4500±500 Lux); sampling was performed on days 5, 10, and 30 to investigate changes in the appearance, purity, and crystal form of the samples.

Setting [1] is: Left to stand open at 60 °C for 5 days.
[2] abbreviates: Left to stand open at 60 °C for 10 days.
Setting [3] is: Left to stand open at 60 °C for 30 days.
Where [4] appears, read: Left to stand open at RH 92.5% for 5 days.
The mark [5] stands for this setting: Left to stand open at RH 92.5% for 10 days.
Setting [6] is: Left to stand open at RH 92.5% for 30 days.
[7] abbreviates: Left to stand open under illumination (4500±500 Lux) for 5 days.
Where [8] appears, read: Left to stand open under illumination (4500±500 Lux) for 10 days.
Where [9] appears, read: Left to stand open under illumination (4500±500 Lux) for 30 days.

With `COc1cc2nccc(Oc3ccc(NC(=O)c4nn(C(C)C)cc(-c5ccc(F)cc5)c4=O)nc3)c2cc1OC` [Crystal form I, N-(5-((6,7-dimethoxyquinolin-4-yl)oxy)pyridin-2-yl)-5-(4-fluorophenyl)-1-isopropyl-4-oxo-1,4-dihydropyridazine-3-carboxamide], the Appearance result (0 days) is recorded as “White or off-white solid”; the Appearance result under setting [1] is on record as “White or off-white solid”; the Appearance entry under setting [2] is recorded as “White or off-white solid”; the Appearance result under setting [3] is reported as “White or off-white solid”; the Appearance entry under setting [4] is on record as “White or off-white solid”; the Appearance entry under setting [5] is listed as “White or off-white solid”. Besides, the Appearance entry reads like this: under setting [6], “White or off-white solid”; under setting [7], “White or off-white solid”; under setting [8], “White or off-white solid”; under setting [9], “White or off-white solid”. For the same molecule, the Purity by setting is: (0 days) 99.69%; under setting [1], 99.70%; under setting [2], 99.68%; under setting [3], 99.67%; under setting [4], 99.69%; under setting [5], 99.68%. In addition, the Purity worked out at 99.67% under setting [6], 99.70% under setting [7], 99.69% under setting [8] and 99.69% under setting [9]. In addition, the “changes in the appearance and purity” value (left to stand under conditions of the influencing factors for 30 days) was “no significant changes”.
